According to patent US20130197016A1, “DOSING REGIMES FOR THE TREATMENT OF OCULAR VASCULAR DISEASE” (priority 2010, published 2013):
Entries after “also recorded” stand apart in the source; their conditions may differ. Where two headings read alike, the source gives them in different places.

Experiments:
[1] = test system: laser-induced choroidal neovascularization (CNV) area; experiment: Rat laser-induced CNV model; weekly administration (Example 3); type: in vivo, Brown Norway rats; details: for inhibition in vivo at 0.3 mg/kg: 0.3 mg/kg weekly (before laser, day 6 and 13); for inhibition in vivo at 1 mg/kg: 1 mg/kg weekly (before laser, day 6 and 13); for Efficacy in a weekly dosing regimen: weekly dosing at doses of Table 2, compared to daily; for inhibition in vivo at 3 mg/kg: 3 mg/kg weekly (before laser, day 6 and 13), formulation A (B for Compound 9)
Protocol: After laser insults, the rats were administered the compounds of Table 1 formulated as specified in Table 2 or placebo on day 6 and 13.

[2] = test system: laser-induced choroidal neovascularization (CNV) area; experiment: Rat laser-induced choroidal neovascularization (CNV) model; daily administration (Example 1); type: in vivo, Brown Norway rats; details: 264 h, read-out: Efficacy Daily % (Ex. 1); for inhibition in vivo at 0.3 mg/kg: 0.3 mg/kg oral daily to day 11 or 12, formulation A; for inhibition in vivo at 1 mg/kg: 1 mg/kg oral daily to day 11 or 12, formulation A
Protocol: Three month old Brown Norway rats were administered with placebo or active agent of Table 1 at the dosing concentration and formulation specified in Table 2 infra about one hour prior to laser application. The rat eyes were dilated with one drop of phenylephrine and cyclopentolate (Altaire Pharmaceuticals inc. Aqueboque, N.Y. and Akorn Inc. Lake Forest, Ill.) and then immobilized. Each eye was administered four laser burns 2-3 disc diameters from the optic nerve with an Oculight GLx 532 nm laser (Iridex). Each study group had 10 rats, 20 eyes and 80 data points.
After laser insult, the rats were administered placebo or the compounds of Table 1 at the dosing concentration and formulation specified in Table 2 daily from day 1 to day 11 or 12. Immediately before harvesting the eyes, rodents were injected i.v. with a 2,000 kd fluorescein isothiocyanate (FITC) dextran vascular label. Tissues were harvested about 24 hours after the last dose was administered.
Eyes were fixed with 4% paraformaldehyde and the retinal pigment epithelium(RPE)/choroid/sclera complexes dissected and placed onto microscope slides. Fluorescent images of each CNV lesion were captured and lesion areas were quantified on masked data using Axiovision software (Version 4.5 Zeiss). Inter-group differences were analyzed by one-way analysis of variance (ANOVA) with a Neuman-Keuls post hoc analysis (Prism v. 4.02 by GraphPad Software, Inc. La Jolla Calif.). Efficacy is defined herein to mean the percentage reduction in CNV area after treatment compared to placebo.
Each group consisted of 10 rats, 4 laser burns/eye, and 80 data points/group. Assay length was 11 or 12 days after laser (1 mg/kg n=2, 3 mg/kg n=5, 10 mg/kg n=7, 30 mg/kg n=1).

[3] = Ocular PK in Brown Norway rats following a single oral dose (Example 5); type: in vivo; details: for Kp / AUC(0-t): Brown Norway, rat; for Kp: retina/plasma, po; for AUC(0-t): sampling 6-144 hrs; for Concentration over time in posterior eye cup and retina (words, FIG. 3-6): single oral dose per Table 3 (Compound 1 30 mg/kg, Compound 2 10 mg/kg, Compound 9 10 mg/kg)
Protocol: Three month old Brown Norway rats were administered orally with active agent of Table 1 at the dosing concentration and formulation specified in Table 3 infra. […] The ocular tissues collected were the retina and the posterior eye cup.
Ocular tissues were homogenized and plasma proteins precipitated and drug concentration was analyzed by LC-MS/MS.

[4] = test system: neovascular adult macular degeneration (AMD); details: oral, alone or with intravitreal bevacizumab, daily or thrice weekly, three patients; cited from earlier work
[5] = Rattus norvegicus, 144 h, formulation A, percent reduction in CNV area vs vehicle control, read-out: Efficacy Weekly % (Ex. 3)
[6] = percent reduction in CNV area vs vehicle control
[7] = Rattus norvegicus, 144 h, percent reduction in CNV area vs vehicle control, read-out: Efficacy Weekly % (Ex. 3)
[8] = 3 mg/kg oral daily to day 11 or 12, formulation A (B for Compound 9), percent reduction in CNV area vs vehicle control

For `CC(=O)N1Cc2ncnc(Oc3ccc4c(ccn4C(=O)Nc4cc(C5CC5)on4)c3)c2C[C@@H]1C` [Compound 4, (−)-5-((S)-7-Acetyl-6-methyl-5,6,7,8-tetrahydro-pyrido[3,4-d]pyrimidin-4-yloxy)-indole-1-carboxylic acid (5-cyclopropyl-isoxazol-3-yl)-amide], the inhibition in vivo at 0.3 mg/kg [1, 5] was 50% and the inhibition in vivo at 0.3 mg/kg [2, 6] was 96%.

For `COc1cc2nccc(Oc3ccc(NC(=O)Nc4cc(C)on4)c(Cl)c3)c2cc1OC` [Compound 6, 1-(2-chloro-4-((6,7-dimethoxyquinolin-4-yl)oxy)phenyl)-3-(5-methylisoxazol-3-yl)urea], the Kp ([3]; 0.3 mg/kg) was 0.6, the AUC(0-t) ([3]; single oral dose 0.3 mg/kg, plasma, read-out: AUC(last) Plasma) was 1.2 µM·h and the AUC(0-t) ([3]; single oral dose 0.3 mg/kg, posterior eye cup, read-out: AUC(last) PEC) was 83.5 µM·h. For the same compound, the AUC(0-t) ([3]; single oral dose 0.3 mg/kg, retina, read-out: AUC(last) Retina) was 2.47 µM·h, the “Retinal to plasma exposure ratio, comparison among compounds” value ([3]; single oral dose per Table 3 (Compound 2 10 mg/kg, Compound 6 0.3 mg/kg)) was “lower retinal to plasma exposure ratio than Compound 2” and the “Loss of efficacy in weekly dosing compared to daily dosing” value ([1]; 0.3 mg/kg) was 39%. For the same compound, the inhibition in vivo at 0.3 mg/kg [1, 5] was 40%, the inhibition in vivo at 1 mg/kg [1, 5] was 90% and the “Efficacy in a weekly dosing regimen” value [1] was “greatest level of efficacy”. It also gave an inhibition in vivo at 0.3 mg/kg [2, 6] of 79% and an inhibition in vivo at 1 mg/kg [2, 6] of 96%.

For `Nc1cc(Oc2ccc3c(C(=O)Nc4cccc(C(F)(F)F)c4)cccc3c2)ncn1` [Compound 3, 6-(6-Amino-pyrimidin-4-yloxy)-naphthalene-1-carboxylic acid (3-trifluoromethyl-phenyl)-amide], the inhibition in vivo at 1 mg/kg [1, 5] was 57%, the “Efficacy in a weekly dosing regimen” value [1] was “greatest level of efficacy” and the inhibition in vivo at 1 mg/kg [2, 6] was 63%.

`O=C(Nc1cccc(C(F)(F)F)c1)c1cccc2cc(Oc3cc(CO)ncn3)ccc12` [Compound 7, 6-(6-Hydroxymethyl-pyrimidin-4-yloxy)-naphthalene-1-carboxylic acid (3-trifluoromethyl-phenyl)-amide] showed an inhibition in vivo at 3 mg/kg [1, 7] of 46% and an inhibition in vivo at 3 mg/kg [2, 8] of 96%.

For `O=C(Nc1cc(C2CC2)on1)n1ccc2cc(Oc3ncnc4c3CNC4)ccc21` [Compound 8, 5-(6,7-dihydro-5H-pyrrolo[3,4-d]pyrimidin-4-yloxy)-indole-1-carboxylic acid (5-cyclopropyl-isoxazol-3-yl)-amide], the inhibition in vivo at 3 mg/kg [1, 7] was 26%, the “Efficacy in a weekly dosing regimen” value [1] was “least efficacy” and the inhibition in vivo at 3 mg/kg [2, 8] was 88%.

For `CNCc1cc(Oc2ccc3c(ccn3C(=O)Nc3cc(C(F)(F)F)n(C)n3)c2)ncn1` [Compound 10, 5-(6-Methylaminomethyl-pyrimidin-4-yloxy)-indole-1-carboxylic acid (1-methyl-5-trifluoromethyl-1H-pyrazol-3-yl)-amide], the inhibition in vivo at 1 mg/kg [1, 5] was 23%, the “Efficacy in a weekly dosing regimen” value [1] was “least efficacy” and the inhibition in vivo at 1 mg/kg [2, 6] was 88%.

Compound `CC1(c2cc(NC(=O)n3ccc4cc(Oc5ncnc6c5CCNC6)ccc43)[nH]n2)CC1` [Compound 5, 5-(5,6,7,8-Tetrahydro-pyrido[3,4-d]pyrimidin-4-yloxy)-indole-1-carboxylic acid [5-(1-methyl-cyclopropyl)-2H-pyrazol-3-yl]-amide] has an inhibition in vivo at 10 mg/kg ([1]; Rattus norvegicus, 144 h, 10 mg/kg weekly (before laser, day 6 and 13), formulation A, percent reduction in CNV area vs vehicle control, read-out: Efficacy Weekly % (Ex. 3)) of 50% and an inhibition in vivo at 10 mg/kg ([2]; 10 mg/kg oral daily to day 11 or 12, formulation A, percent reduction in CNV area vs vehicle control) of 85%.

In the case of `CNC(=O)c1cc(Oc2ccc(NC(=O)Nc3ccc(Cl)c(C(F)(F)F)c3)cc2)ccn1` [Compound 9, 4-[4-[[4-chloro-3-(trifluoromethyl)phenyl]carbamoylamino]phenoxy]-N-methyl-pyridine-2-carboxamide], the Kp ([3]; 10 mg/kg) is reported as 2.1, the AUC(0-t) ([3]; single oral dose 10 mg/kg, plasma, read-out: AUC(last) Plasma) is reported as 151 µM·h and the AUC(0-t) ([3]; single oral dose 10 mg/kg, posterior eye cup, read-out: AUC(last) PEC) is reported as 82 µM·h. The AUC(0-t) ([3]; single oral dose 10 mg/kg, retina, read-out: AUC(last) Retina) was 95.1 µM·h, the “Concentration over time in posterior eye cup and retina (words, FIG. 3-6)” value [3] was “substantially similar at each sampling time point” and the inhibition in vivo at 3 mg/kg [1, 7] was 26%. For the same compound, the “Efficacy in a weekly dosing regimen” value [1] was “least efficacy; also recorded: absence of efficacy”, the inhibition in vivo at 3 mg/kg ([2]; po) was 90% and the “Benefit in neovascular AMD patients” value [4] was “uncertain benefit”.

Work on `Cc1ccc(Nc2nccc(N(C)c3ccc4c(C)n(C)nc4c3)n2)cc1S(N)(=O)=O` [Compound 1, 5-[[4-[(2,3-Dimethyl-2H-indazol-6-yl)methylamino]-2-pyrimidinyl]amino]-2-methylbenzolsulfonamide] yielded a Kp ([3]; 30 mg/kg) of 0.2, an AUC(0-t) ([3]; single oral dose 30 mg/kg, plasma, read-out: AUC(last) Plasma) of 583 µM·h and an AUC(0-t) ([3]; single oral dose 30 mg/kg, posterior eye cup, read-out: AUC(last) PEC) of 6820 µM·h. The AUC(0-t) ([3]; single oral dose 30 mg/kg, retina, read-out: AUC(last) Retina) was 132 µM·h, the “Plasma exposure over time (words, FIG. 3-4)” value ([3]; single oral dose per Table 3 (Compound 1 30 mg/kg, Compound 2 10 mg/kg)) was “increased plasma exposure throughout the duration of the week after administration” and the “Concentration over time in posterior eye cup and retina (words, FIG. 3-6)” value [3] was “sustained ocular exposure in the posterior eye cup tissues for at least a week”. The inhibition in vivo at 30 mg/kg ([1]; Rattus norvegicus, 144 h, 30 mg/kg weekly (before laser, day 6 and 13), formulation A, percent reduction in CNV area vs vehicle control, read-out: Efficacy Weekly % (Ex. 3)) was 50% and the inhibition in vivo at 30 mg/kg ([2]; 30 mg/kg oral daily to day 11 or 12, formulation A, percent reduction in CNV area vs vehicle control) was 42%.
